# Assay results: US20230031406A1, “COMPOUNDS AND COMPOSITIONS FOR TREATING CONDITIONS ASSOCIATED WITH NLRP ACTIVITY” (Novartis AG, priority 2018, published 2023)
# Tested on: PMA-differentiated THP-1 cells
# Experiment: IL-1β production in PMA-differentiated THP-1 cells stimulated with gramicidin (hTHP-1 assay containing 2% fetal bovine serum; Procedures 1 and 2)
# Assay type: cell-based, human
# Details: Homo sapiens, THP-1, Table B3; hTHP-1 assay, 2% fetal bovine serum; class symbols; read-out: IC50
# Procedure, shortened: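 Compound titrations in 0.37% final DMSO were added to THP-1 cells that had been plated after 16-18 h PMA treatment, 50,000 per well in 2% FBS. One hour later the cells received gramicidin (5 μM, 2 h) and were centrifuged. HTRF detected IL-1β in the collected supernatants.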
row,SMILES,IC50
1,"CCn1cc(F)c(S(N)(=O)=NC(=O)Nc2c3c(nc4c2CCC4(C)C)CCC3)n1 (stereo not drawn) [Example 638, N′-((3,3-dimethyl-1,2,3,5,6,7-hexahydrodicyclopenta[b,e]pyridin-8-yl)carbamoyl)-1-ethyl-4-fluoro-1H-pyrazole-3-sulfonimidamide]",8 to 40 nM
2,"CC1(C)CCc2c1nc1c(c2NC(=O)N=[S@@](N)(=O)c2cc([C@](C)(O)CO)cs2)CCC1 [Example 651, (R)-4-((S)-1,2-dihydroxypropan-2-yl)-N′-((3,3-dimethyl-1,2,3,5,6,7-hexahydrodicyclopenta[b,e]pyridin-8-yl)carbamoyl) thiophene-2-sulfonimidamide]",40 to 200 nM
3,"C[C@@](O)(CO)c1cc(F)c([S@](N)(=O)=NC(=O)Nc2c3c(nc4c2CCC42CC2)CCC3)s1 [Example 676, (R)-5-((R)-1,2-dihydroxypropan-2-yl)-3-fluoro-N′-((1′,5′,6′,7′-tetrahydro-2′H-spiro[cyclopropane-1,3′-dicyclopenta[b,e]pyridin]-8′-yl)carbamoyl)thiophene-2-sulfonimidamide]",200 to 1000 nM
4,"C[C@](O)(CO)c1cc(F)c([S@@](N)(=O)=NC(=O)Nc2c3c(nc4c2CCC42CC2)CCC3)s1 [Example 677, (S)-5-((S)-1,2-dihydroxypropan-2-yl)-3-fluoro-N′-((1′,5′,6′,7′-tetrahydro-2′H-spiro[cyclopropane-1,3′-dicyclopenta[b,e]pyridin]-8′-yl)carbamoyl)thiophene-2-sulfonimidamide]",5000 to 30000 nM
5,"C[C@](O)(CO)c1cc(F)c([S@](N)(=O)=NC(=O)Nc2c3c(nc4c2CCC42CC2)CCC3)s1 [Example 678, (R)-5-((S)-1,2-dihydroxypropan-2-yl)-3-fluoro-N′-((1′,5′,6′,7′-tetrahydro-2′H-spiro[cyclopropane-1,3′-dicyclopenta[b,e]pyridin]-8′-yl)carbamoyl)thiophene-2-sulfonimidamide]",8 to 40 nM

# Other lines, results leading:
row,IC50,SMILES
1,200 to 1000 nM,"CCn1cc(F)c(S(N)(=O)=NC(=O)Nc2c(C)c(C3CC3)nc3c2CCC3)n1 (stereo not drawn) [Example 637, N′-((2-cyclopropyl-3-methyl-6,7-dihydro-5H-cyclopenta[b]pyridin-4-yl)carbamoyl)-1-ethyl-4-fluoro-1H-pyrazole-3-sulfonimidamide]"
2,5000 to 30000 nM,"CC1(C)CCc2c1nc1c(c2NC(=O)N=[S@](N)(=O)c2cc([C@](C)(O)CO)cs2)CCC1 [Example 652, (S)-4-((S)-1,2-dihydroxypropan-2-yl)-N′-((3,3-dimethyl-1,2,3,5,6,7-hexahydrodicyclopenta[b,e]pyridin-8-yl)carbamoyl) thiophene-2-sulfonimidamide]"
3,40 to 200 nM,"CC1(C)CCc2c1nc1c(c2NC(=O)N=[S@@](N)(=O)c2cc([C@@](C)(O)CO)cs2)CCC1 [Example 653, (R)-4-((R)-1,2-dihydroxypropan-2-yl)-N′-((3,3-dimethyl-1,2,3,5,6,7-hexahydrodicyclopenta[b,e]pyridin-8-yl)carbamoyl) thiophene-2-sulfonimidamide]"
4,5000 to 30000 nM,"CC1(C)CCc2c1nc1c(c2NC(=O)N=[S@](N)(=O)c2cc([C@@](C)(O)CO)cs2)CCC1 [Example 654, (S)-4-((R)-1,2-dihydroxypropan-2-yl)-N′-((3,3-dimethyl-1,2,3,5,6,7-hexahydrodicyclopenta[b,e]pyridin-8-yl)carbamoyl) thiophene-2-sulfonimidamide]"
5,5000 to 30000 nM,"C[C@@](O)(CO)c1cc(F)c([S@@](N)(=O)=NC(=O)Nc2c3c(nc4c2CCC42CC2)CCC3)s1 [Example 675, (S)-5-((R)-1,2-dihydroxypropan-2-yl)-3-fluoro-N′-((1′,5′,6′,7′-tetrahydro-2′H-spiro[cyclopropane-1,3′-dicyclopenta[b,e]pyridin]-8′-yl)carbamoyl)thiophene-2-sulfonimidamide]"

# Same assay, conditions: Homo sapiens, THP-1, Table B3; hTHP-1 assay, 2% fetal bovine serum; numeric values; read-out: IC50
row,SMILES,IC50
1,"Cc1c(C(=O)O)nc2c(c1NC(=O)N=S(N)(=O)c1cnc(C(C)(C)O)s1)CCC2 (stereo not drawn) [Example 636, 4-(3-(Amino(2-(2-hydroxypropan-2-yl)thiazol-5-yl)(oxo)-l6-sulfaneylidene)ureido)-3-methyl-6,7-dihydro-5H-cyclopenta[b]pyridine-2-carboxylic acid]",> 30000 nM

# Same assay, conditions: Homo sapiens, THP-1, Table B4; 2% fetal bovine serum; class symbols; read-out: hTHP-1 IC50
row,SMILES,IC50
1,"CCn1cc(F)c(S(N)(=O)=NC(=O)Nc2c3c(nc(C(F)(F)F)c2-c2ccc(F)cc2)CCC3)n1 (stereo not drawn) [Example 733, 1-Ethyl-4-fluoro-N′-((3-(4-fluorophenyl)-2-(trifluoromethyl)-6,7-dihydro-5H-cyclopenta[b]pyridin-4-yl)carbamoyl)-1H-pyrazole-3-sulfonimidamide]",40 to 200 nM
2,"NS(=O)(=NC(=O)Nc1c2c(nc3c1CCC3)CCC2)c1nn(C(F)F)cc1F (stereo not drawn) [Example 735, 1-(Difluoromethyl)-4-fluoro-N′-((1,2,3,5,6,7-hexahydrodicyclopenta[b,e]pyridin-8-yl)carbamoyl)-1H-pyrazole-3-sulfonimidamide]",200 to 1000 nM
3,"Cc1c(C(F)(F)F)nc(C(F)(F)F)c(C)c1NC(=O)N=S(N)(=O)c1cc(C(C)(C)O)cs1 (stereo not drawn) [Example 738, N′-((3,5-dimethyl-2,6-bis(trifluoromethyl)pyridin-4-yl)carbamoyl)-4-(2-hydroxypropan-2-yl)thiophene-2-sulfonimidamide]",1000 to 5000 nM
4,"NS(=O)(=NC(=O)Nc1c2c(nc(C(F)(F)F)c1-c1ccccc1)CCC2)c1nn(C(F)F)cc1F (stereo not drawn) [Example 740, 1-(Difluoromethyl)-4-fluoro-N′-((3-phenyl-2-(trifluoromethyl)-6,7-dihydro-5H-cyclopenta[b]pyridin-4-yl)carbamoyl)-1H-pyrazole-3-sulfonimidamide]",40 to 200 nM

# Results, then the compound that gave them:
row,IC50,SMILES
1,200 to 1000 nM,"Cc1c(C(F)(F)F)nc2c(c1NC(=O)N=S(N)(=O)c1nn(C(C)C)cc1F)CCC2 (stereo not drawn) [Example 734, 4-Fluoro-1-isopropyl-N′-((3-methyl-2-(trifluoromethyl)-6,7-dihydro-5H-cyclopenta[b]pyridin-4-yl)carbamoyl)-1H-pyrazole-3-sulfonimidamide]"
2,200 to 1000 nM,"CCn1cc(F)c(S(N)(=O)=NC(=O)Nc2c3c(nc4c2CCC4)CCC3)n1 (stereo not drawn) [Example 736, 1-Ethyl-4-fluoro-N′-((1,2,3,5,6,7-hexahydrodicyclopenta[b,e]pyridin-8-yl)carbamoyl)-1H-pyrazole-3-sulfonimidamide]"
3,200 to 1000 nM,"NS(=O)(=NC(=O)Nc1c2c(nc(C3CC3)c1C1CC1)CCC2)c1nn(C(F)F)cc1F (stereo not drawn) [Example 737, N′-((2,3-dicyclopropyl-6,7-dihydro-5H-cyclopenta[b]pyridin-4-yl)carbamoyl)-1-(difluoromethyl)-4-fluoro-1H-pyrazole-3-sulfonimidamide]"
4,8 to 40 nM,"CC(C)n1cc(F)c(S(N)(=O)=NC(=O)Nc2c3c(nc4c2CC[C@H]4C)CCC3)n1 (stereo partly drawn) [Example 739, 4-Fluoro-1-isopropyl-N′-(((R)-3-methyl-1,2,3,5,6,7-hexahydrodicyclopenta[b,e]pyridin-8-yl)carbamoyl)-1H-pyrazole-3-sulfonimidamide]"
5,40 to 200 nM,"CCn1cc(F)c(S(N)(=O)=NC(=O)Nc2c3c(nc(C)c2-c2ccccc2)CCC3)n1 (stereo not drawn) [Example 741, 1-Ethyl-4-fluoro-N′-((2-methyl-3-phenyl-6,7-dihydro-5H-cyclopenta[b]pyridin-4-yl)carbamoyl)-1H-pyrazole-3-sulfonimidamide]"
6,8 to 40 nM,"CCn1cc(F)c(S(N)(=O)=NC(=O)Nc2c3c(nc(C(F)(F)F)c2-c2ccccc2)CCC3)n1 (stereo not drawn) [Example 742, 1-Ethyl-4-fluoro-N′-((3-phenyl-2-(trifluoromethyl)-6,7-dihydro-5H-cyclopenta[b]pyridin-4-yl)carbamoyl)-1H-pyrazole-3-sulfonimidamide]"
